From US7741491B2, “Diphenylamine-substituted salicylthiazole derivatives and related compounds as phosphotyrosine phosphatase 1B (PTB1B) inhibitors for using as blood-sugar decreasing active ingredients for treating diabetes” (Sanofi-Aventis Deutschland GmbH, priority 2004, dated 2010)

Target: T1, human PTP1B (Homo sapiens, UniProt P18031)
T1 construct: but without the carboxy-terminal hydrophobic region (corresponding to 1-299 aa); made in house; host or cells: Sf9 insect cells (Spodoptera frugiperda), Bac-to-Bac baculovirus system
T1 sequence (P18031 1-299): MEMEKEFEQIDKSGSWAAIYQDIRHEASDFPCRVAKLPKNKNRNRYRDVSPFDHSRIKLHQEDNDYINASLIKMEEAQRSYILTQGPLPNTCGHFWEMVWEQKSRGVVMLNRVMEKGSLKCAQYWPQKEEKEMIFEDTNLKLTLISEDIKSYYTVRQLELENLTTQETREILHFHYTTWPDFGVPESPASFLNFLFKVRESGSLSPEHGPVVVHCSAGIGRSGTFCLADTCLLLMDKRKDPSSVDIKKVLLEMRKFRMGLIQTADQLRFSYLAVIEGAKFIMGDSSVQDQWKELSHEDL
Test: PTP Assay PTP1B DiFMUP (enzymatic test for inhibition of a phosphatase)
Format: biochemical
Conditions: recombinant hPTP1B (aa 1-299, expressed in Sf9 cells); substrate DiFMUP per table head; read-out: IC-50 (μM) PTP Assay PTP1B DiFMUP

IC50: 0.7 µM
SMILES: O=C(O)c1cc(-c2csc(Nc3ccc(-c4ccccc4)cc3)n2)ccc1O [Example 17]
